# Laboratory results published in patent US20100267743A1, “3-(PHENOXYPYRROLIDIN-3-YL-METHYL)HETEROARYL, 3-(PHENYLPYRROLIDIN-3-YLMETHOXY)HETEROARYL, AND 3-(HETEROARYLPYRROLIDIN-3-YLMETHOXY)HETEROARYL COMPOUNDS” (priority 2009, published 2010).
# Experiments:
# SERT = SERT (Homo sapiens, UniProt P31645); experiment: hSERT radioligand binding assay (3H-citalopram); design: expressed in transfected cells; host or cells: HEK-293; conditions: hSERT membranes (HEK-293), 1.0 nM 3H-citalopram; for Ki: read-out: SERT pKi (converted)
# Procedure: (§1) Membrane radioligand binding assays were used to measure inhibition of labeled ligand (^3H-citalopram or ^3H-nisoxetine or ^3H-WIN35428) binding to membranes prepared from cells expressing the respective human recombinant transporter (hSERT or hNET or hDAT) in order to determine the pKi values of test compounds at the transporters.
# (§2) Recombinant human embryonic kidney (HEK-293) derived cell lines stably transfected with hSERT or hNET, respectively, were grown in DMEM medium supplemented with 10% dialyzed FBS (for hSERT) or FBS (for hNET), 100 μg/ml penicillin, 100 μg/ml streptomycin, 2 mM L-glutamine and 250 μg/ml of the aminoglycoside antibiotic G418, in a 5% CO2 humidified incubator at 37° C. When cultures reached 80% confluence, the cells were washed thoroughly in PBS (without […] and Mg^2+) and lifted with 5 mM EDTA in PBS. Cells were pelleted by centrifugation, resuspended in lysis buffer (10 mM Tris-HCl, pH7.5 containing 1 mM EDTA), homogenized, pelleted by centrifugation, then resuspended in 50 mM Tris-HCl, pH 7.5 and 10% sucrose at 4° C. Protein concentration of the membrane suspension was determined using a Bio-Rad Bradford Protein Assay kit. Membranes were snap frozen and stored at −80° C. Chinese hamster ovary membranes expressing hDAT (CHO-DAT) were purchased from PerkinElmer and stored at −80° C.
# (§3) Binding assays were performed in a 96-well assay plate in a total volume of 200 μl assay buffer (50 mM Tris-HCl, 120 mM NaCl, 5 mM KCl, pH 7.4) with 0.5, 1, and 3 μg membrane protein, for SERT, NET and DAT, respectively.
# (§4) Stock solutions (10 mM in DMSO) of test compound were prepared and serial dilutions made using Dilution Buffer (50 mM Tris-HCl, 120 mM NaCl, 5 mM KCl, pH 7.4, 0.1% BSA, 400 μM ascorbic acid).
# (§5) Following a 60 minute incubation at 22° C. (or a period sufficient to reach equilibrium), the membranes were harvested by rapid filtration over a 96-well UniFilter GF/B plate, pretreated with 0.3% polyethyleneimine, and washed 6 times with 300 μl wash buffer (50 mM Tris-HCl, 0.9% NaCl, pH 7.5 at 4° C.). Plates were dried overnight at room temperature, ˜45 μl of MicroScint™-20 (Perkin Elmer) added and bound radioactivity quantitated via liquid scintillation spectroscopy. Inhibition curves and saturation isotherms were analyzed using GraphPad Prism Software package (GraphPad Software, Inc., San Diego, Calif.). IC50 values were generated from concentration response curves using the Sigmoidal Dose Response (variable slope) algorithm in Prism GraphPad. Kd and Bmax values for the radioligand were generated from saturation isotherms using the Saturation Binding Global Fit algorithm in Prism GraphPad. pKi (negative decadic logarithm of Ki) values for test compounds were calculated from the best-fit IC50 values, and the Kd value of the radioligand, using the Cheng-Prusoff equation (Cheng & Prusoff (1973) Biochem. Pharmacol. 22(23):3099-3108): Ki=IC50/(1+[L]/Kd), where [L]=concentration radioligand.
# NET = NET (Homo sapiens, UniProt P23975); experiment: hNET radioligand binding assay (3H-nisoxetine); design: expressed in transfected cells; host or cells: HEK-293; conditions: hNET membranes (HEK-293), 1.0 nM 3H-nisoxetine; for Ki: read-out: NET pKi (converted)
# Procedure: as §1, §2, §3, §4, §5
# Chain of SERT (P31645 whole entry): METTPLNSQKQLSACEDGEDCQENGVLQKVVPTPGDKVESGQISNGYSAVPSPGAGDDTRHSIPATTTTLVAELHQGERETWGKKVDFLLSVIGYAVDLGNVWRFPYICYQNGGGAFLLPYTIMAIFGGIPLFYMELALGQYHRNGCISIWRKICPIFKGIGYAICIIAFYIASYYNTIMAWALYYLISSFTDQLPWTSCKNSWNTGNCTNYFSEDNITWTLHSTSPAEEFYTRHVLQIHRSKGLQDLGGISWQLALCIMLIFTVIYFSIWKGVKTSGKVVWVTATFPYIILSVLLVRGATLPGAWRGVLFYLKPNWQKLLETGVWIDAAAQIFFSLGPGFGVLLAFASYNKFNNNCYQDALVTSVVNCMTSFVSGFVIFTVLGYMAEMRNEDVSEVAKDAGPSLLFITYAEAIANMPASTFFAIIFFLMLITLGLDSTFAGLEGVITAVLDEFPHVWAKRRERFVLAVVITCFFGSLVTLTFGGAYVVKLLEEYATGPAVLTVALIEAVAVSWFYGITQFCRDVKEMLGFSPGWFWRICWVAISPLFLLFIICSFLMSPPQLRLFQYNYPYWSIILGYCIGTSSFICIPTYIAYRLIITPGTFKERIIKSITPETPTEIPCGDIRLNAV
# Chain of NET (P23975 whole entry): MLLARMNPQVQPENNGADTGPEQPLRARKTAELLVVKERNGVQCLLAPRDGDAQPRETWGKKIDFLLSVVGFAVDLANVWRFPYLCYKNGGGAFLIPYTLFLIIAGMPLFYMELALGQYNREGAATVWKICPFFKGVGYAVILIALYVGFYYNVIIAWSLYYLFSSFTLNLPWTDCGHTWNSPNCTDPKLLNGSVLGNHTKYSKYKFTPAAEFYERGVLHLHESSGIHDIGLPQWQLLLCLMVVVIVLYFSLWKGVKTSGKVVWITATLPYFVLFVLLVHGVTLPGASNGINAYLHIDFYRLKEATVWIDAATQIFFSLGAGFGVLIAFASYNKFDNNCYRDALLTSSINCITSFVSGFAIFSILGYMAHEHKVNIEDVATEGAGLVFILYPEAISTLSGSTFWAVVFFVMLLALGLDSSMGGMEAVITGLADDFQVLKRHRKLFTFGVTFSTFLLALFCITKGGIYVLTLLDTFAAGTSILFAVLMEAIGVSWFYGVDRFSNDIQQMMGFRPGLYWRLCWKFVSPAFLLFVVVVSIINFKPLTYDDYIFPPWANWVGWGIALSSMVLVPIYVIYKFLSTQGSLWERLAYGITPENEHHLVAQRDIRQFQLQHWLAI
Ki (SERT) [nM],Ki (NET) [nM],Structure (SMILES),SERT pKi (SERT),NET pKi (NET)
–,–,Clc1cc(Cl)cc(O[C@H](c2nccs2)[C@H]2CCNC2)c1 [Example 5-27],≧7.0,≧7.0
–,–,Fc1cncc([C@H](Oc2ccc3ccccc3c2)[C@H]2CCNC2)c1.O=C(O)C(F)(F)F [20-3],≧7.0,≧7.0
–,–,Cc1cc(Cl)c(O[C@@H](c2ncco2)[C@H]2CCNC2)c(Cl)c1.O=C(O)C(F)(F)F [6-12],≧7.0,≧5.0
–,–,FC(F)(F)c1ccc(O[C@@H](c2ccccc2)[C@H]2CCNC2)nc1.O=C(O)C(F)(F)F [14-23],≧7.0,≧5.0
≤ 100,≤ 100,c1ccc(C(Oc2cccc3ccccc23)C2CCNC2)cc1 (stereo not shown) [21-1],–,–
≤ 100,≤ 10000,"Cc1cc(Cl)cc(C)c1OC(c1cncc(F)c1)C1CCNC1 [Example 2-46, 3-[(R)-(4-Chloro-2,6-dimethylphenoxy)-(S)-pyrrolidin-3-yl-methy1]-5-fluoropyridine]",–,–
≤ 100,≤ 10000,FC(F)(F)Oc1cccc(C(Oc2cccc3ccccc23)C2CCNC2)c1 (stereo not shown) [21-7],–,–
–,–,Cc1cnc(O[C@@H](c2ccccc2)[C@H]2CCNC2)c(Br)c1.O=C(O)C(F)(F)F [14-31],≧7.0,≧7.0
–,–,Fc1ccc(O[C@@H](c2ncco2)[C@H]2CCNC2)c(Cl)c1.O=C(O)C(F)(F)F [6-22],≧5.0,≧7.0
–,–,Cc1cc(Cl)ccc1O[C@@H](c1ncco1)[C@H]1CCNC1.O=C(O)C(F)(F)F [6-34],≧7.0,≧7.0
–,≤ 100,"Fc1ccc(OC(c2nccs2)C2CCNC2)c(F)c1F [Example 5-2, 2-[((S)-((S)-Pyrrolidin-3-yl-(2,3,4-trifluorophenoxy)methyl]thiazole]",≧7.0,–
≤ 100,≤ 100,"Fc1cncc(C(Oc2ccc(Cl)cc2Cc2ccccc2)C2CCNC2)c1 [Example 2-47, 3-[(R)-(2-Benzy1-4-chlorophenoxy)-(S)-pyrrolidin-3-yl-methy1]-5-fluoropyridine]",–,–
–,–,Fc1ccc(F)c(O[C@@H](c2nccs2)[C@H]2CCNC2)c1Cl [Example 5-15],≧7.0,≧5.0
–,–,Cc1ccccc1O[C@@H](c1nccs1)[C@H]1CCNC1 [Example 5-24],≧7.0,≧5.0
≤ 100,≤ 100,Cc1cc(Cl)cnc1O[C@@H](c1cncc(F)c1)[C@H]1CCNC1 [Example 17],–,–
≤ 100,≤ 10000,COc1ccc(O[C@@H](c2ccccc2)C2CCNC2)cn1 (stereo partly shown) [15-29],–,–
–,–,Fc1ccc(F)c(O[C@@H](c2cnccn2)[C@H]2CCNC2)c1Cl.O=C(O)C(F)(F)F [10-3],≧5.0,≧7.0
–,–,"Cc1cc(Cl)cc(C)c1O[C@H](c1cncc(Cl)c1)[C@@H]1CCNC1 [Example 2-29, 3-Chloro-5-[(R)-(4-chloro-2,6-dimethylphenoxy)-(S)-pyrrolidin-3-yl-methy1]-pyridine]",≧7.0,≧5.0
≤ 10000,≤ 100,"Fc1cc(F)c(F)c(OC(c2nccs2)C2CCNC2)c1F [Example 5-4, 2-[((S)-((S)-Pyrrolidin-3-yl-(2,3,5,6-tetrafluorophenoxy)methyl]thiazole]",–,–
–,–,Clc1cc(-c2ccccc2)ccc1O[C@@H](c1ncco1)[C@H]1CCNC1.O=C(O)C(F)(F)F [6-25],≧5.0,≧7.0
≤ 100,≤ 10000,"Fc1ccc(F)c(O[C@H](c2cncc(Cl)c2)[C@H]2CCNC2)c1Cl [Example 2-7, 3-Chloro-5-[(S)-(2-chloro-3,6-difluorophenoxy)-(S)-pyrrolidin-3-yl-methyl]-pyridine]",–,–
≤ 100,≤ 10000,Fc1ccc(F)c(O[C@H](c2cnccn2)[C@H]2CCNC2)c1Cl [10-4],–,–
≤ 100,≤ 100,"Fc1cc(F)c(O[C@@H](c2cncc(Cl)c2)[C@H]2CCNC2)c(F)c1 [Example 2-33, 3-Chloro-5-[(R)-(S)-pyrrolidin-3-yl-(2,4,6-trifluorophenoxy)methyl]pyridine]",–,–
